Data taken from patent US20170252383A1, “AGENT FOR PROMOTING GROWTH OF NONPATHOGENIC ORAL INDIGENOUS BACTERIA OR AGENT FOR IMPROVING ORAL BACTERIAL FLORA, AND COMPOSITION FOR ORAL USE” (HOKUTO CORPORATION, priority 2014, published 2017).

Experiments:
Test in all cases: Growth-promoting effects on normal bacteria in oral cavity (Experimental Example 2)
Assay type in all cases: cell-based
Conditions in all cases: powder 0.01% in distilled water (triclosan concentration not printed), aerobic 37° C., 12 hours, turbidity relative to control without sample
[1] = system: Streptococcus oralis ATCC 9811
Experimental: (§1) Dry-ground mushroom powder suspensions obtained by dispersing the dry-ground powders of various mushrooms prepared as described above to a concentration of 0.01% in distilled water, and 4% aqueous solutions of the various mushroom extracts obtained as described above, were each added as samples in 100 μL portions to 96-well plates.
(§2) Next, 100 μL of suspensions of the bacteria shown in Tables 1 and 2 were added to the dry-ground mushroom powder suspensions and mushroom extracts serving as these samples, and the bacteria were cultured aerobically at 37° C. for 12 hours. The bacterial suspensions used were prepared by pre-culturing the bacteria in a tryptic soy medium (TS medium; Becton and Dickinson), and inoculating the pre-cultured bacteria to a 2% concentration in a 2-fold concentration TS medium.
(§3) Bacterial proliferation was measured, calculated and evaluated in the same way as in Experimental Example 1.
(§4) The indigenous oral bacteria used in evaluation were of the following three species purchased from the ATCC.
Streptococcus oralis ATCC 9811 (abbreviated below as S. oralis)
(§5) Prior to turbidity measurement, the culture fluids were stirred by shaking the plates.

[2] = system: Streptococcus mitis ATCC 47456
Experimental: as §1, §2, §3, §4
Streptococcus mitis ATCC 47456 (abbreviated below as S. mitis)
as §5

[3] = system: Streptococcus gordonii ATCC 10558
Experimental: as §1, §2, §3, §4
Streptococcus gordonii ATCC 10558 (S. gordonii)
as §5

Oc1cc(Cl)ccc1Oc1ccc(Cl)cc1Cl [Triclosan, triclosan]
Degree of bacterial growth due to dry-ground powders, S. oralis [1]: 0
Degree of bacterial growth due to dry-ground powders, S. oralis ([1]; listed as triclosan): suppressed growth
Degree of bacterial growth due to dry-ground powders, S. mitis [2]: 0
Degree of bacterial growth due to dry-ground powders, S. mitis ([2]; listed as triclosan): suppressed growth
Degree of bacterial growth due to dry-ground powders, S. gordonii [3]: 0
Degree of bacterial growth due to dry-ground powders, S. gordonii ([3]; listed as triclosan): suppressed growth
